Reference: patent publication US20060257843A1 (priority 2002, published 2006)
Read-outs that look alike come from different tables or passages of the source.

Tests used:
[1] = test system: primary cultures of cortex
[2] = test system: cortical cells; conditions: 100 uM tolbutamide
[3] = test system: primary cortical cultures; conditions: 5% Triton; 20 minutes incubation
[4] = target: F425G Shaker mutation (Drosophila melanogaster, UniProt P08510, F425G); conditions: cited from earlier work
Sequence of F425G Shaker mutation (P08510 whole entry F425G): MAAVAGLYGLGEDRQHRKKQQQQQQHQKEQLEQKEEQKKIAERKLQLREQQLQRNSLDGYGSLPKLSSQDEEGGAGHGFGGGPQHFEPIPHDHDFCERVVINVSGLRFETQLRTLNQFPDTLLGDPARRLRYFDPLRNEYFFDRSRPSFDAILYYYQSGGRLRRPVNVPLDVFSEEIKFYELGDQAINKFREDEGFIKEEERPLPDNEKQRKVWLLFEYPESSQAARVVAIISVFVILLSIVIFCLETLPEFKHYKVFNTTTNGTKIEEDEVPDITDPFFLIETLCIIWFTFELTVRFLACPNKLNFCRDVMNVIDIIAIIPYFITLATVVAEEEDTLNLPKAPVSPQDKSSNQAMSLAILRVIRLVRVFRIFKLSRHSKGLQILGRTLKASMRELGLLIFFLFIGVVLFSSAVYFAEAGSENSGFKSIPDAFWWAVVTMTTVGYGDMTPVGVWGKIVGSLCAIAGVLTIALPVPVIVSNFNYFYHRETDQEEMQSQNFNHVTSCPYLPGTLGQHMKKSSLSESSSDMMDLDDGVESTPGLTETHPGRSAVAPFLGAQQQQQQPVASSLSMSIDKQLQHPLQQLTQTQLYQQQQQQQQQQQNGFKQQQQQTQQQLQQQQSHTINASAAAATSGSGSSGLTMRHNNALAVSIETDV

Nc1ccncc1 [4-AP, 4-aminopyridine]
effect of K+ channel antagonist on κ-PVIIA-induced hyperpolarization ([1]; cortical preparations, 100 nM κ-PVIIA): without any detectable effect

COc1ccc(Cl)cc1C(=O)NCCc1ccc(S(=O)(=O)NC(=O)NC2CCCCC2)cc1 [Glibenclamide]
effect of Glibenclamide on κ-PVIIA-induced hyperpolarization ([1]; cortical preparations, Glibenclamide 10 nM, 100 nM κ-PVIIA): significant reductions

CCCCNC(=O)NS(=O)(=O)c1ccc(C)cc1 [Tolbutamide, reference compound]
effect of tolbutamide on κ-PVIIA protection against glutamate cytotoxicity [2]: blocked

Iberiotoxin (QFTDVDCSVSKECWSVCKDLFGVDRGKCMGKKCRCYQ; UniProt P24663 1-37, looked up) [IBTX]
effect of K+ channel antagonist on κ-PVIIA-induced hyperpolarization [1]: without any detectable effect

Triton [reference compound]
increase in fluorescence, Enzchek protease-sensitive dye [3]: ~14%

charybdotoxin [reference compound]
increase of charybdotoxin affinity by F425G Shaker mutation [4]: three orders of magnitude
